Assay: Ranking of candidate chelator and base agents by potency score
Set-up: key: 1 = most desired, 3 = least desired
Conditions: not given
Text: Methods of selecting base and chelator compositions depend on use. Compositions may be determined by ranking base, chelator and enhancer agents, from most desired to least desired, for multiple parameters such as safety, solubility, compatibility, pH, potency, taste, consistency, smell and others.
Non-toxic chelator and base compositions may be ranked according to the desired parameters of potency and approved-for-oral-consumption. A desired parameter such as potency for a candidate chelator or base may be given a score of “1” for most desired and a score of “3” for least desired. In one embodiment, candidate chelators, bases and enhancers may be ranked by FDA approval for oral consumption. Agents with a score of “1” may have approval for the desired indication and a score of “3” may not have approval or may not be approved for the desired indication. The resultant overall score may be tabulated and may be used to facilitate selection.
Microbes were cultured in growth media and plated at 10^3 CFU/well in a 96 well microtiter plate and cultured for 24 h. Wells were then treated with 10-50 μL of media only as control or with media+chelator agents, base agents, acid agents, neutral agents or enhancer agents for 30 min at RT followed by repleation in […] of fresh RPMI pH 7.2. Plates were then incubated for an additional 48-72 h prior to harvest. Wells were washed 3× in PBS and residual biofilm was stained using crystal violet. Wells were washed 4× in PBS and the amount of retained stain was measured. […] Synergistic effects were evaluated and numerous compounds were examined for their ability to synergistically act with chelators to inhibit biofilm formation (examples of some test compounds analyzed for synergy with chelators are presented in Table 2).
Screens of base components to use in compositions comprising chelator were performed. Briefly, the pH of S. mutans cultures were measured 24 and 48 hr post administration of chelator and candidate base components. Combinations of chelator, base and enhancer agents were also evaluated for affecting metabolic activity and/or metabolism of S. mutans (FIG. 3).

Compound | POTENCY (score 1-3)
NCCCC[C@H](N)C(=O)O [Lysine] | 2

Same assay, conditions: base agents that may be used in combination with chelators

Compound | POTENCY (score 1-3)
OC[C@H]1O[C@H](O[C@H]2[C@H](O)[C@@H](O)[C@H](O)O[C@@H]2CO)[C@H](O)[C@@H](O)[C@@H]1O [D-maltose] | 1
O=P([O-])([O-])O.[Ca+2] [Dibasic calcium phosphate] | 3
NC(N)=Nc1nc(CSCCC(N)=NS(N)(=O)=O)cs1 [Famotidine, reference compound] | 1
Cc1ncc(COP(=O)(O)O)c(C=O)c1O [Pyridoxal-5-phosphate] | 1
Cc1ncc(CO)c(CN)c1O [Pyridoxamine] | 1
Cc1ncc(CO)c(CO)c1O [Pyridoxine] | 1
CNC(=C[N+](=O)[O-])NCCSCc1ccc(CN(C)C)o1 [Remitidine, reference compound] | 1
OCN(CO)CO [Tris (hydroxymethyl) amine] | 2
NC(CO)(CO)CO [Tris amine] | 2
O=c1cc[nH]c(=O)[nH]1 [Uracil] | 3
Lysozyme | 1
Vitamin B12 | 2
Vitamin K | 1
protamine sulfate | 2

Same assay, conditions: chelators that may be used in combination with base agents

Compound | POTENCY (score 1-3)
COc1cc(/C=C/C(=O)CC(=O)/C=C/c2ccc(O)c(OC)c2)ccc1O [Curcumin] | 2
O=S(=O)(O)CC(S)CS (centres unmarked) [DMPS] | 1
O=C(O)[C@@H](S)[C@@H](S)C(=O)O [DMSA] | 1
CC(=O)N(O)CCCCCNC(=O)CCC(=O)N(O)CCCCCNC(=O)CCC(=O)N(O)CCCCCN [Deferasiroxamine B] | 1
O=C(O[C@@H]1Cc2c(O)cc(O)cc2O[C@@H]1c1cc(O)c(O)c(O)c1)c1cc(O)c(O)c(O)c1 [EGCG] | 1
O=C(O)CN(CCOCCOCCN(CC(=O)O)CC(=O)O)CC(=O)O [EGTA] | 1
O=P(O)(O)O[C@H]1[C@H](OP(=O)(O)O)[C@@H](OP(=O)(O)O)[C@H](OP(=O)(O)O)[C@@H](OP(=O)(O)O)[C@H]1OP(=O)(O)O [Inositol hexaphosphate] | 2
O=c1c(O)c(-c2ccc(O)c(O)c2)oc2cc(O)cc(O)c12 [Quercetin] | 1
Oc1ccc(C=Cc2cc(O)cc(O)c2)cc1 [Resveratrol] | 2
CC(=O)N(O)CCC[C@@H]1NC(=O)[C@H](CCCN(O)C(C)=O)NC1=O [Rhodotorulic acid] | 1
O=C(OC[C@H]1O[C@@H](OC(=O)c2cc(O)c(O)c(OC(=O)c3cc(O)c(O)c(O)c3)c2)[C@H](OC(=O)c2cc(O)c(O)c(OC(=O)c3cc(O)c(O)c(O)c3)c2)[C@@H](OC(=O)c2cc(O)c(O)c(OC(=O)c3cc(O)c(O)c(O)c3)c2)[C@@H]1OC(=O)c1cc(O)c(O)c(OC(=O)c2cc(O)c(O)c(O)c2)c1)c1cc(O)c(O)c(OC(=O)c2cc(O)c(O)c(O)c2)c1 [Tannic acid] | 1
Anachelins | 1
Chlorophylls | 1
Cyclodextrins | 1
Deferoxamines | 1
Ferrioxamines | 1
Vitamin B12 | 1

Source: patent US11491100B2, “Dermal composition comprising chelator and base” (Primal Therapies, Inc., priority 2013, dated 2022)
